The record followed here is US20180008587A1, “THIOHYDANTOIN ANDROGEN RECEPTOR ANTAGONISTS FOR THE TREATMENT OF CANCER” (Jaressen Pharmaceutica NV, priority 2016, published 2018).

Where a chain is given by its changes, count along the chain named. Read-outs that look alike come from different tables or passages of the source.

Common to all, as to type: cell-based
Experiment [1] concerns the target T1, wild-type Androgen Receptor (AR-wt) (Homo sapiens, UniProt P10275).
T1 construct: expressed in transfected cells; host or cells: LNCaP (LNCaP AR (cs))
T1 sequence (P10275 1-920): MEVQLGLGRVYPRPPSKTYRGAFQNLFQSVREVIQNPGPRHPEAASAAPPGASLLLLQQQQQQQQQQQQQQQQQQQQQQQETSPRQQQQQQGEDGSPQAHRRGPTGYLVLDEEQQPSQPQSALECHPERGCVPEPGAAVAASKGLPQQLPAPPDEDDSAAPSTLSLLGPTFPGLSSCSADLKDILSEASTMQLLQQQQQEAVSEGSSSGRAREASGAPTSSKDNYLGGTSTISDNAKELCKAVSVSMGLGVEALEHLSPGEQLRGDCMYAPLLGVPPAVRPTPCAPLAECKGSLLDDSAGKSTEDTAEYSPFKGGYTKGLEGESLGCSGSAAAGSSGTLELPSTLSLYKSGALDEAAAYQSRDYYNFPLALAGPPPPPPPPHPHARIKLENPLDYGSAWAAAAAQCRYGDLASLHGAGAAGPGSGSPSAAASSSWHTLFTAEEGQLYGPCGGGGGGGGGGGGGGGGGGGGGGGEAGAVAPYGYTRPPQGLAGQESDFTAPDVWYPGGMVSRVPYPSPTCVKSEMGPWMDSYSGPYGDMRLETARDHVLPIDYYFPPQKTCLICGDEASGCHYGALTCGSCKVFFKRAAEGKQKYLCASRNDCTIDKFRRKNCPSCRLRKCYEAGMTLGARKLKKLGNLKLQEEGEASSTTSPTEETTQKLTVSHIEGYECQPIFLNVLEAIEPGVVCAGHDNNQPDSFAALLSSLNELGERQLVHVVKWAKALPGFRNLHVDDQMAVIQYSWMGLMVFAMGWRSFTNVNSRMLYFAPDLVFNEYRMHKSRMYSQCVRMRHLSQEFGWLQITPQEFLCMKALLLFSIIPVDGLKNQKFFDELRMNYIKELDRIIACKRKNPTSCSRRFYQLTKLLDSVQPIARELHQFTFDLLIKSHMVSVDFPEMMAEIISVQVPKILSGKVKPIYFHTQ
In words: LNCaP-AR-wt ANT reporter assay (ARE firefly luciferase, antagonist mode). Particulars: for IC50: antagonist mode, 400 pM R-1881 challenge, −Log10(IC50 [Molar]), read-out: LNCaP-AR-wt ANT pIC50 (converted); for Emax: read-out: LNCaP-AR-wt ANT MAX % Inh. As for the experimental part:
(§1) A stable pooled-population cell line was generated using puromycin (Life Technologies) selection at 1:10,000 v/v. The protocol below was used for both cell lines and for testing of the compounds of Formula (I) of the present invention.
(§2) LNCaP cells were grown to about 80% confluence, media removed and cells rinsed in Hank's balanced salt solution prior to separation from the plate with 0.05% Trypsin EDTA. Cells were lifted and trypsin negated in complete CSS (charcoal stripped serum) culture media. […] Agonist challenge was at 400 pM for WT assay and 600 pM for F876L assay. Plates containing cells and compounds herein were incubated for a further 20-24 hours at 37° C., 5% CO2 before addition of 40 μL/well of Steady-Glo Luciferase Assay System Reagent (Promega# E2520). After 1 h, plates were read for luminescence on a BMG Pherastar.
(§3) EC/IC50 calculations were achieved utilizing calculated RLU data and data fitting macros. Data were fit using least-squares methods to the following formula: […]
On the technique in general: A reporter such as luciferase makes a cellular process visible.

Experiment [2] has as its target T1, wild-type Androgen Receptor (AR-wt). In words: LNCaP-AR-wt AG reporter assay (ARE firefly luciferase, agonist mode). Particulars: for Emax: read-out: LNCaP-AR-wt AG MAX % Stim. As for the experimental part: as §1, §2, §3
Experiment [3] has as its target T2, F876L mutant Androgen Receptor (AR-F876L) (Homo sapiens, UniProt P10275, F877L).
T2 construct: expressed in transfected cells; host or cells: LNCaP (LNCaP F876L)
T2 sequence (P10275 1-920 F877L): T1 sequence (P10275 1-920) with F877L
Nature of the experiment: LNCaP-AR-F876L ANT reporter assay (ARE firefly luciferase, antagonist mode). The following applies: for Emax: read-out: LNCaP-AR-F876L ANT MAX % Inh; for IC50: read-out: LNCaP-AR-F876L ANT pIC50 (converted). As for the experimental part:
as §1, §2, §3

The target in experiment [4] is T2, F876L mutant Androgen Receptor (AR-F876L). In words: LNCaP-AR-F876L AG reporter assay (ARE firefly luciferase, agonist mode). The following applies: for Emax: read-out: LNCaP-AR-F876L AG MAX % Stim. The method, then: as §1, §2, §3
The mark [5] stands for this setting: maximum % inhibition of R1881 control response over tested concentration range.
Setting [6] is: agonist mode, −Log10(EC50 [Molar]), read-out: LNCaP-AR-wt AG pEC50 (converted).
Setting [7] is: maximum % stimulation (agonist response) over tested concentration range.
The mark [8] stands for this setting: agonist mode, −Log10(EC50 [Molar]), read-out: LNCaP-AR-F876L AG pEC50 (converted).

Consider `COc1ccc(N2C(=S)N(c3cnc(C#N)c(C)c3)C(=O)C23CCC3)cc1` [Cpd 69, 5-[8-(4-methoxyphenyl)-5-oxo-7-thioxo-6,8-diazaspiro[3.4]octan-6-yl]-3-methyl-pyridine-2-carbonitrile], for which the figures for the IC50 in experiment [1] and in experiment [3] were 282 nM and 132 nM, respectively. Moreover, the Emax in experiment [1] (setting [5]) is 102%; in experiment [2] (setting [7]) it was 0.9%; in experiment [3] (setting [5]), 99.1%; in experiment [4] (setting [7]), 0.7%. Besides, the EC50 in experiment [2] (setting [6]) and in experiment [4] (setting [8]) was > 15100 nM each time.

As for `N#Cc1ncc(N2C(=O)C3(CCC3)N(c3ccc(C(=O)NCc4cccc(Cl)c4)c(F)c3)C2=S)cc1C(F)(F)F` [Cpd 95, N-[(3-chlorophenyl)methyl]-4-[6-[6-cyano-5-(trifluoromethyl)-3-pyridyl]-5-oxo-7-thioxo-6,8-diazaspiro[3.4]octan-8-yl]-2-fluoro-benzamide], the IC50 in experiment [1] was 794 nM; in experiment [3], 1050 nM. Also, the Emax in experiment [1] (setting [5]) came to 96.1%; in experiment [2] (setting [7]) it was 0.2%; in experiment [3] (setting [5]), 92.3%; in experiment [4] (setting [7]) it was 1.5%. Besides, the EC50 in experiment [2] (setting [6]) and in experiment [4] (setting [8]) was > 15100 nM throughout.

As for `N#Cc1cccc(N2C(=S)N(c3cnc(C#N)c(C(F)(F)F)c3)C(=O)C23CCC3)c1` [Cpd 79, 5-[8-(3-cyanophenyl)-5-oxo-7-thioxo-6,8-diazaspiro[3.4]octan-6-yl]-3-(trifluoromethyl)pyridine-2-carbonitrile], the IC50 is 631 nM in experiment [1] and 331 nM in experiment [3]. In addition, the Emax in experiment [1] (setting [5]) amounted to 101%; in experiment [2] (setting [7]), 1.6%; in experiment [3] (setting [5]) it was 101%; in experiment [4] (setting [7]), 0.5%. For the same compound, the EC50 in experiment [2] (setting [6]) and in experiment [4] (setting [8]) was > 15100 nM each time.

As for `N#Cc1ncc(N2C(=O)C3(CCC3)N(c3ccc(OC4CCN(CCO)CC4)cc3)C2=S)cc1C(F)(F)F` [Cpd 51, 5-[8-[4-[[1-(2-hydroxyethyl)-4-piperidyl]oxy]phenyl]-5-oxo-7-thioxo-6,8-diazaspiro[3.4]octan-6-yl]-3-(trifluoromethyl)pyridine-2-carbonitrile], the IC50 is 389 nM in experiment [1] and 200 nM in experiment [3]. In addition, the Emax amounted to 99% in experiment [1], 0.8% in experiment [2], 101% in experiment [3] and 0.2% in experiment [4]. The EC50 in experiment [2] and in experiment [4] was > 15100 nM each time.

As for `Cc1cc(N2C(=O)C3(CCC3)N(c3ccc(OC4CCSCC4)cc3)C2=S)cnc1C#N` [Cpd 13, 3-methyl-5-[5-oxo-8-(4-tetrahydrothiopyran-4-yloxyphenyl)-7-thioxo-6,8-diazaspiro[3.4]octan-6-yl]pyridine-2-carbonitrile], the IC50 was 407 nM in experiment [1] and 229 nM in experiment [3]. The Emax worked out at 102% in experiment [1] (setting [5]), 0.4% in experiment [2] (setting [7]), 101% in experiment [3] (setting [5]) and 0.1% in experiment [4] (setting [7]). In addition, the EC50 in experiment [2] (setting [6]) and in experiment [4] (setting [8]) was > 15100 nM each time.

With `N#Cc1ncc(N2C(=O)C3(CCC3)N(c3ccc(C(=O)NCCCN4CCOCC4)c(F)c3)C2=S)cc1C(F)(F)F` [Cpd 72, 4-[6-[6-cyano-5-(trifluoromethyl)-3-pyridyl]-5-oxo-7-thioxo-6,8-diazaspiro[3.4]octan-8-yl]-2-fluoro-N-(3-morpholinopropyl)benzamide], the values for the IC50 in experiment [1] and in experiment [3] were 251 nM and 102 nM, respectively. Besides, the Emax is 102% in experiment [1], 0.3% in experiment [2], 101% in experiment [3] and 0.6% in experiment [4]. In addition, the EC50 in experiment [2] and in experiment [4] was > 15100 nM throughout.

On to `CN1CCN(CCNC(=O)c2ccc(N3C(=S)N(c4cnc(C#N)c(C(F)(F)F)c4)C(=O)C34CCC4)cc2F)CC1` [Cpd 121, 4-[6-[6-cyano-5-(trifluoromethyl)-3-pyridyl]-5-oxo-7-thioxo-6,8-diazaspiro[3.4]octan-8-yl]-2-fluoro-N-[2-(4-methylpiperazin-1-yl)ethyl]benzamide], for which the results for the IC50 in experiment [1] and in experiment [3] were 2750 nM and 575 nM, respectively. For the same compound, the Emax in experiment [1] (setting [5]) is 93.6%; in experiment [2] (setting [7]), 1.2%; in experiment [3] (setting [5]), 98.7%; in experiment [4] (setting [7]), 3%. The EC50 in experiment [2] (setting [6]) and in experiment [4] (setting [8]) was > 15100 nM in each case.

`N#Cc1ncc(N2C(=O)C3(CCC3)N(c3ccc(C(=O)N4CCCC4)c(F)c3)C2=S)cc1C(F)(F)F` [Cpd 52, 5-[8-[3-fluoro-4-(pyrrolidine-1-carbonyl)phenyl]-5-oxo-7-thioxo-6,8-diazaspiro[3.4]octan-6-yl]-3-(trifluoromethyl)pyridine-2-carbonitrile]: the results for the IC50 in experiment [1] and in experiment [3] were 741 nM and 468 nM, respectively. The Emax in experiment [1] (setting [5]) amounted to 101%; in experiment [2] (setting [7]), 0.4%; in experiment [3] (setting [5]) it was 102%; in experiment [4] (setting [7]), 0.4%. Moreover, the EC50 in experiment [2] (setting [6]) and in experiment [4] (setting [8]) was > 15100 nM throughout.

Consider `Cc1ccc(NC(=O)c2ccc(N3C(=S)N(c4cnc(C#N)c(C)c4)C(=O)C34CCC4)cc2F)cn1` [Cpd 75, 4-[6-(6-cyano-5-methyl-3-pyridyl)-5-oxo-7-thioxo-6,8-diazaspiro[3.4]octan-8-yl]-2-fluoro-N-(6-methyl-3-pyridyl)benzamide], for which the IC50 is 562 nM in experiment [1] and 145 nM in experiment [3]. Moreover, the Emax in experiment [1] was 101%; in experiment [2], 0.8%; in experiment [3] it was 100%; in experiment [4], 0.8%. Moreover, the EC50 in experiment [2] and in experiment [4] was > 15100 nM throughout.
